The text below walks through data of patent US7335501B1, “Phytases and methods for producing these phytases” (Adisseo France S.A.S., priority 2001, dated 2008).

This assay deals with Penicillium sp. CBS 109899 phytase (wild type, SEQ ID NO: 3), in crude fungal extract. In words: Michaelis-Menten constants of the phytase contained in the crude fungal extract (phosphate release from sodium phytate, method of Shimizu). It counts as biochemical. The following applies: substrate sodium phytate, 250 mM acetate buffer with 1 mM CaCl2, pH 5.5, 37° C. As for the experimental part: The measurement of phytase activity is based on the method of Shimizu (1992, Biosci. Biotech. Biochem. 56(8), 1266-1269). The principle of this method consists in measuring the amount of inorganic phosphate released during the enzymatic reaction of the phytase with its substrate (solution of sodium phytate prepared at 10 g/l in a 250 mM acetate buffer containing 1 mM CaCl2, pH 5.5). The amount of inorganic phosphate released is measured by reaction of this phosphate with a chromogenic reagent (1 volume of iron sulfate at 10.8% mixed extemporaneously with 4 volumes of ammonium molybdate at 0.012M H2SO4). This reaction leads, in highly acidic medium, to the formation of a colored phosphomolybdate complex (in the presence of Fe^2+), and the amount of complex formed is quantified by measuring the absorbance at 700 nm of the colored solution generated, on a spectrophotometer.
Three reactions are carried out in parallel in order to produce enzymatic kinetics at 10, 20 and 30 minutes at 37° C. […] The sample interference is determined by adding the 20% trichloroacetic acid and then the phytic acid to the crude extract, which may or may not be diluted. […] The intensity of the blue coloration is measured by spectrophotometry at 700 nm. […] The enzymatic activity is determined using the rate of appearance of the phosphate in the course of the enzymatic kinetics. […]

For the molecule `O=P(O)(O)O[C@H]1[C@H](OP(=O)(O)O)[C@@H](OP(=O)(O)O)[C@H](OP(=O)(O)O)[C@@H](OP(=O)(O)O)[C@H]1OP(=O)(O)O` [sodium phytate], the “Vmapp (maximum reaction rate)” value was 1.425 μmol of phosphate released per minute and per mg of sample. In addition, the Km (substrate concentrations and incubation times modified, read-out: Kmapp) is 550 µM.
